The results in this text go back to ChEMBL document CHEMBL3045092, “Synthesis and Fungicidal Activity of 2-Imino-3-(4-arylthiazol-2-yl)-thiazolidin-4-ones and Their 5-Arylidene Derivatives” (2000).

Holding throughout (type): functional
Details in all cases: read-out: GI

One test has as its system Fusarium graminearum. The test is described as follows: Fungicidal activity against Fusarium graminearum assessed as growth inhibition at 50 ppm after 48 hr relative to untreated control.
The next test deals with Pythium aphanidermatum. The test is described as follows: Fungicidal activity against Pythium aphanidermatum assessed as growth inhibition at 50 ppm after 48 hr relative to untreated control.
A further test relates to Pyricularia oryzae. The test is described as follows: Fungicidal activity against Magnaporthe oryzae assessed as growth inhibition at 50 ppm after 48 hr relative to untreated control.
A further test relates to Botrytis cinerea. The test is described as follows: Fungicidal activity against Botryotinia fuckeliana assessed as growth inhibition at 50 ppm after 48 hr relative to untreated control.
The next test relates to Aspergillus niger. Kind of test: Fungicidal activity against Aspergillus niger assessed as growth inhibition at 50 ppm after 48 hr relative to untreated control.
A further test concerns Pleurotus ostreatus. The test is described as follows: Fungicidal activity against Pleurotus ostreatus assessed as growth inhibition at 50 ppm after 48 hr relative to untreated control.
The next test deals with Gaeumannomyces graminis. Kind of test: Fungicidal activity against Gaeumannomyces graminis assessed as growth inhibition at 50 ppm after 48 hr relative to untreated control.

For the compound `N=C1S/C(=C\c2ccccc2[N+](=O)[O-])C(=O)N1c1nc(-c2ccccc2)cs1`, the inhibition of growth at 50 ppm in the test on Fusarium graminearum was 61.9%; with Pythium aphanidermatum, 3.8%; in the test with Pyricularia oryzae, 20.2%; in the test with Botrytis cinerea, 64.7%; in the test on Aspergillus niger, 54.3%; in the test with Pleurotus ostreatus, 84.1%. Moreover, the inhibition of growth at 50 ppm with Gaeumannomyces graminis is 0%.
`N=C1S/C(=C\c2cccc([N+](=O)[O-])c2)C(=O)N1c1nc(-c2ccccc2)cs1`: the inhibition of growth at 50 ppm is 20.6% in the test with Fusarium graminearum; 25% in the test with Pythium aphanidermatum; 3.2% in the test with Pyricularia oryzae; 0% with Botrytis cinerea; 49.7% in the test with Aspergillus niger; 5.9% in the test with Pleurotus ostreatus. Further, the inhibition of growth at 50 ppm in the test with Gaeumannomyces graminis was determined as 0%.
As to `N=C1SCC(=O)N1c1nc(-c2cc(F)c(Cl)cc2Cl)cs1`, the inhibition of growth at 50 ppm in the test on Fusarium graminearum was 38.8%; with Pythium aphanidermatum, 12.5%; in the test on Pyricularia oryzae it was 76.3%; with Botrytis cinerea, 38.2%; with Aspergillus niger, 58.8%; in the test on Pleurotus ostreatus, 95%. Further, in the test with Gaeumannomyces graminis, the inhibition of growth at 50 ppm stood at 91.3%.
For `N=C1SCC(=O)N1c1nc(-c2ccc([N+](=O)[O-])cc2)cs1`, the inhibition of growth at 50 ppm in the test with Fusarium graminearum is 2.2%; with Pythium aphanidermatum it was 8.8%; with Pyricularia oryzae, 38.1%; in the test with Botrytis cinerea it was 0%; in the test on Aspergillus niger, 56.2%; with Pleurotus ostreatus it was 12.4%. Moreover, the inhibition of growth at 50 ppm with Gaeumannomyces graminis was 26.7%.
`N=C1S/C(=C\c2ccccc2Cl)C(=O)N1c1nc(-c2ccccc2)cs1`: the inhibition of growth at 50 ppm with Fusarium graminearum came out at 37.4%; in the test with Pythium aphanidermatum it was 17.2%; with Pyricularia oryzae, 0%; in the test on Botrytis cinerea, 27.5%; with Aspergillus niger it was 23.6%; with Pleurotus ostreatus it was 0%. In the test with Gaeumannomyces graminis, the inhibition of growth at 50 ppm is 0%.
Take `N=C1SCC(=O)N1c1nc(-c2ccc(Cl)cc2Cl)cs1`: the inhibition of growth at 50 ppm was 48.6% with Fusarium graminearum; 0% in the test with Pythium aphanidermatum; 79.4% in the test on Pyricularia oryzae; 0% in the test with Botrytis cinerea; 62.8% with Aspergillus niger; 97.2% in the test on Pleurotus ostreatus. In the test with Gaeumannomyces graminis, the inhibition of growth at 50 ppm is 86.7%.
Regarding `N=C1S/C(=C\c2ccccc2[N+](=O)[O-])C(=O)N1c1nc(-c2ccc(Cl)cc2)cs1`, the inhibition of growth at 50 ppm in the test on Fusarium graminearum is 58.8%; in the test with Pythium aphanidermatum it was 12.5%; in the test with Pyricularia oryzae it was 14.8%; in the test with Botrytis cinerea, 66.7%; in the test on Aspergillus niger it was 60.8%; with Pleurotus ostreatus it was 84.8%. The inhibition of growth at 50 ppm with Gaeumannomyces graminis was 0%.
Regarding `N=C1S/C(=C\c2cccc([N+](=O)[O-])c2)C(=O)N1c1nc(-c2ccc([N+](=O)[O-])cc2)cs1`, the inhibition of growth at 50 ppm in the test with Fusarium graminearum is 51.6%; with Pythium aphanidermatum it was 0%; in the test with Pyricularia oryzae, 0%; in the test with Botrytis cinerea, 4.7%; with Aspergillus niger, 52.3%; in the test with Pleurotus ostreatus, 29.8%. In the test on Gaeumannomyces graminis, the inhibition of growth at 50 ppm stood at 0%.
For the compound `N=C1SCC(=O)N1c1nc(-c2ccccc2)cs1`, the inhibition of growth at 50 ppm came out at 21.1% in the test on Fusarium graminearum; 8.8% in the test on Pythium aphanidermatum; 58.8% in the test with Pyricularia oryzae; 3.5% in the test with Botrytis cinerea; 54.3% in the test with Aspergillus niger; 82.6% in the test on Pleurotus ostreatus. For the same compound, the inhibition of growth at 50 ppm in the test on Gaeumannomyces graminis was 60%.
Turning to `N=C1S/C(=C\c2ccccc2Cl)C(=O)N1c1nc(-c2ccc(Cl)cc2)cs1`, the inhibition of growth at 50 ppm with Fusarium graminearum is 31.8%; with Pythium aphanidermatum it was 46.2%; with Pyricularia oryzae, 0%; in the test on Botrytis cinerea, 0%; with Aspergillus niger, 40.8%; with Pleurotus ostreatus it was 0%. Besides, the inhibition of growth at 50 ppm in the test with Gaeumannomyces graminis came out at 0%.
For `N=C1SCC(=O)N1c1nc(-c2ccc(Cl)cc2)cs1`, the inhibition of growth at 50 ppm was 29.7% in the test with Fusarium graminearum; 3.8% with Pythium aphanidermatum; 58.8% with Pyricularia oryzae; 0% in the test on Botrytis cinerea; 52.3% in the test on Aspergillus niger; 72.4% with Pleurotus ostreatus. In the test with Gaeumannomyces graminis, the inhibition of growth at 50 ppm stood at 51.3%.
Consider `N=C1S/C(=C\c2cccc([N+](=O)[O-])c2)C(=O)N1c1nc(-c2ccc(Cl)cc2)cs1`, for which the inhibition of growth at 50 ppm with Fusarium graminearum stood at 61.9%; in the test with Pythium aphanidermatum, 16.3%; in the test with Pyricularia oryzae it was 26.5%; in the test on Botrytis cinerea, 71.3%; with Aspergillus niger it was 58.8%; in the test with Pleurotus ostreatus, 84.1%. Besides, in the test with Gaeumannomyces graminis, the inhibition of growth at 50 ppm is 0%.
Consider `N=C1S/C(=C\c2ccccc2[N+](=O)[O-])C(=O)N1c1nc(-c2cc(F)c(Cl)cc2Cl)cs1`, for which the inhibition of growth at 50 ppm in the test on Fusarium graminearum is 48.5%; in the test with Pythium aphanidermatum, 0%; in the test on Pyricularia oryzae, 50.4%; in the test on Botrytis cinerea, 2%; in the test with Aspergillus niger, 49.7%; with Pleurotus ostreatus, 15.2%. In addition, the inhibition of growth at 50 ppm in the test on Gaeumannomyces graminis is 0%.
For the compound `N=C1S/C(=C\c2ccccc2Cl)C(=O)N1c1nc(-c2ccc([N+](=O)[O-])cc2)cs1`, the inhibition of growth at 50 ppm in the test with Fusarium graminearum amounted to 28%; in the test on Pythium aphanidermatum it was 28%; in the test on Pyricularia oryzae it was 2.1%; in the test with Botrytis cinerea, 60.8%; in the test on Aspergillus niger, 42.7%; with Pleurotus ostreatus, 0%. In the test with Gaeumannomyces graminis, the inhibition of growth at 50 ppm is 37.1%.
In the case of `N=C1S/C(=C\c2ccccc2)C(=O)N1c1nc(-c2cc(F)c(Cl)cc2Cl)cs1`, the inhibition of growth at 50 ppm in the test with Fusarium graminearum came out at 38.1%; in the test with Pythium aphanidermatum, 0%; in the test with Pyricularia oryzae, 4.1%; with Botrytis cinerea it was 28.7%; in the test with Aspergillus niger, 47.7%; in the test with Pleurotus ostreatus, 11.5%. In addition, the inhibition of growth at 50 ppm with Gaeumannomyces graminis amounted to 0%.
For the compound `N=C1S/C(=C\c2cccc([N+](=O)[O-])c2)C(=O)N1c1nc(-c2cc(F)c(Cl)cc2Cl)cs1`, the inhibition of growth at 50 ppm in the test on Fusarium graminearum worked out at 45.4%; with Pythium aphanidermatum it was 33.8%; in the test with Pyricularia oryzae it was 11.7%; in the test on Botrytis cinerea, 24.7%; in the test on Aspergillus niger, 69.3%; in the test on Pleurotus ostreatus it was 32.6%. For the same compound, in the test on Gaeumannomyces graminis, the inhibition of growth at 50 ppm is 0%.
Take `N=C1S/C(=C\c2ccccc2[N+](=O)[O-])C(=O)N1c1nc(-c2ccc([N+](=O)[O-])cc2)cs1`: the inhibition of growth at 50 ppm stood at 24.7% with Fusarium graminearum; 16.3% with Pythium aphanidermatum; 3.2% with Pyricularia oryzae; 33.3% in the test with Botrytis cinerea; 62.8% with Aspergillus niger; 7.2% in the test on Pleurotus ostreatus. For the same compound, the inhibition of growth at 50 ppm in the test on Gaeumannomyces graminis stood at 0%.
